Assay results as given in US20250114430A1, “MODIFIED PEPTIDOMIMETICS AND METHODS OF USE” (The University of North Carolina at Chapel Hill, priority 2021, published 2025).
“Also recorded” adds a separate entry of the source. No end group written: not given here.

What was measured:
[1] = biological target: Orai1 (Homo sapiens, UniProt Q96D31); experiment: Thapsigargin / Ca^2+ add back assay in HEK293T cells with anti-Orai1 shRNA; format: cell-based; design: Endogenous Orai1/store operated Ca^2+ influx have been extensively studied in HEK293T cells; endogenous in cells; host or cells: HEK293T
Protocol: HEK293T cells were transfected with anti-Orai1 shRNA for 48 h and the change in Fluo4 fluorescence was measured. Cells were then exposed to vehicle or […] ELD607 for 1 h. Thapsigargin was then added followed by extracellular Ca^2+ to differentiate ER Ca^2+ release and SOCE. n=8 cultures per condition.
ELD607 requires Orai1 expression to inhibit Ca^2+ signaling. […] Using this approach, curves were fitted to the data and the 50% inhibitory concentrations (IC50S) were calculated.

[2] = system: αSMA; experiment: TGFβ-induced myofibroblast differentiation of CCL-210 fibroblasts (αSMA); format: cell-based, human; conditions: CCL-210, 7 days 10 ng/mL TGFβ, then ELD607 for 48 hours
Protocol: FIG. 36A-36C show ELD607 reduces TGFβ-induced myofibroblast formation. FIG. 36A is a schematic showing fibroblast to myofibroblast formation and αSMA deposition. […] Data are mean data from Western blots in normal fibroblasts.
In vitro Methods: Fibroblasts were exposed to 10 nM TFGβ for 3-7 days as indicated. […] Fibroblasts were then fixed in paraformaldehyde, stained with primary a smooth muscle actin (αSMA) antibody, and imaged by confocal microscopy. Myofibroblasts were exposed to ELD607 without any TGFβ pre-treatment. In some cases, Western blotting was used to probe for αSMA.
ELD607 reverses myofibroblast differentiation. Increased alpha smooth muscle actin (αSMA) deposition is a hallmark of damaged IPF lungs, and is a common marker for identifying when fibroblasts turn into myofibroblasts—key drivers of fibrosis, and it is generally considered that less αSMA is beneficial (FIG. 36A). It was then determined whether ELD607 alters myofibroblast formation. The human lung fibroblast cell line CCL-210 was treated for 7 days with 10 ng/mL TGFβ to induce myofibroblast differentiation.

[3] = system: αSMA; experiment: αSMA deposition in primary myofibroblasts from IPF patients; format: cell-based, human; conditions: primary myofibroblasts from five IPF patients
Protocol: Each pair of point represents paired data from 5 different IPF donors.
In vitro Methods: Fibroblasts were exposed to 10 nM TFGβ for 3-7 days as indicated. Then, ELD607 was added overnight. Fibroblasts were then fixed in paraformaldehyde, stained with primary a smooth muscle actin (αSMA) antibody, and imaged by confocal microscopy. Myofibroblasts were exposed to ELD607 without any TGFβ pre-treatment. In some cases, Western blotting was used to probe for αSMA.

[4] = system: HEK293T cells; experiment: Cytoplasmic Ca^2+ (Fluo-4) in HEK293T cells incubated with ELD peptides; format: cell-based; conditions: 2 hours with Fluo-4 plus or minus peptide
[5] = system: bleomycin-induced lung injury; experiment: Bleomycin-induced lung fibrosis in mice; format: in vivo; design: dose or concentration left out as unconfirmed
Protocol: Mice were exposed to 4 doses of bleomycin as described from days 1-37, then fibrosis was allowed to form from days 38-60. The mice were then dosed daily with inhaled […] (1 mg/kg) from days 61-82. Mice were sacrificed on Day 83 and histology was performed.
ELD607 reverses fibrosis in mice. Bleomycin-exposed mice are a well-established model to study IPF. Based on ATS guidelines, mice were dosed with […] bleomycin per dose 4 times over 37 days to induce fibrosis. From day 61, mice were then treated intranasally with […] ELD607 daily for 20 days (FIG. 40 panel A). Lungs were then collected and prepped for H&E staining and fibrosis was measured using the Ashcroft scaling system.

[6] = system: SCNN1B mice; experiment: SCNN1B (βENaC) overexpressing mice, chronic pulmonary inflammation; format: in vivo
Protocol: SCNN1B and littermate control mice were exposed to ELD607 or vehicle intranasally on a daily basis for 11 days, starting on day 1 post-partum.
FIG. 32 panel A: Mice were infected with P. aeruginosa for 24 h; then, 0.5 mg/kg ELD607 was added intratracheally. BAL was collected 24 h later to determine cell counts. SCNN1B mice were given 0.5 mg/kg ELD607 daily for 11 days before sacrifice and BAL collection. FIG. 32 panel B: Survival of bENaC mice.
Additional models were tested such as the house dust mite (HDM) allergic lung inflammation model (FIG. 20); and SCNN1B-overexpression, wherein mice develop mucus obstruction and spontaneous pulmonary inflammation (FIG. 21).
Repeated ELD607 exposure reduces chronic inflammation in βENaC overexpressing mice. We added ELD607 to βENaC overexpressing mice, which spontaneously develop chronic infection and neutrophilia and have increased mortality (FIG. 32, panel A).

[7] = format: in vitro ADME, human
Description: ELD607 is active in ARDS patient immune cells. Pulmonary neutrophilic inflammation and increased lung neutrophil elastase levels are common in ARDS patient lungs. We therefore evaluated whether ELD607 remained stable in BAL samples patients with ARDS caused by bacterial pneumonia. […] (FIG. 27, panel A).

[8] = system: HEK293T cells; experiment: Inhibition of Ca^2+ influx in HEK293T cells after pre-incubation of peptide in CF sputum; format: cell-based; conditions: peptide incubated 6 h in CF sputum, then HEK293T cells, thapsigargin
[9] = system: house dust mite allergen; experiment: House dust mite (HDM) allergic lung inflammation model; format: in vivo, mice; conditions: HDM 14 days, 0.5 mg/kg intranasally for 2 days
Protocol: Mice were exposed to HDM allergen for 14 days, with […] ELD100 or […] ELD607 instilled intranasally for 2 days before sacrifice.
ELD607 reduces allergic inflammation. Mice were exposed to house dust mite allergen for 14 days. 0.5 mg/kg ELD100 or ELD607 were instilled intranasally for 2 days before sacrifice.

[10] = system: E. coli LPS; experiment: E. coli LPS sepsis model, intravenous ELD607; format: in vivo, mice; conditions: LPS intraperitoneally
Protocol: We injected mice intraperitoneally with E. coli LPS, followed by 0.5 mg/kg ELD607 injected intravenously 1 h later.

Sequence of Orai1 (Q96D31 whole entry): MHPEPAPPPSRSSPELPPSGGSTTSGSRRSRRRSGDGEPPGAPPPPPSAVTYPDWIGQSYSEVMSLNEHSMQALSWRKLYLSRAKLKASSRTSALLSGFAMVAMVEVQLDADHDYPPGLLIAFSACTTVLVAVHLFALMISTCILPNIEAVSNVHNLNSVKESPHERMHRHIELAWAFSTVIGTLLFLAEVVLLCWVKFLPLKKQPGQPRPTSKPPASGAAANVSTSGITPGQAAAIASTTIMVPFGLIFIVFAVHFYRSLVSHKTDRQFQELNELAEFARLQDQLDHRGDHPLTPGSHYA

VHDIVNMLIRG [ELD607, VHDIVNMLIRG]
thapsigargin-stimulated Ca^2+ release from the ER ([1]; absence of extracellular Ca^2+): had no effect on this component | effect on Ca^2+ homeostasis after shRNA knockdown of Orai1 ([1]; anti-Orai1 shRNA 48 h): no longer able to affect Ca^2+ homeostasis | Ca^2+ influx ([1]; extracellular Ca^2+ added back): reduced Ca^2+ influx | αSMA levels (western blot and immunofluorescence) [2]: significantly reduced | αSMA deposition [3]: significantly reduces αSMA deposition | cytoplasmic calcium levels as compared to a control scrambled peptide [4]: reduced cytoplasmic calcium levels | lung damage (Ashcroft) ([5]; 25 intranasally daily for 20 days from day 61): significantly less lung damage than vehicle controls | acute and chronic bleomycin-induced lung injury ([5]; lower dose of 19, different time course): reduces acute and chronic bleomycin-induced lung injury | survival of βENaC overexpressing mice ([6]; daily intranasal 0.5 mg/kg): increased survival | neutrophils in SCNN1B (βENaC) mice ([6]; daily intranasal 0.5 mg/kg, 11 days): significantly reduced lung neutrophilia; also recorded: significantly decreased BAL neutrophil levels | BAL cells in WT littermate mice ([6]; daily intranasal, 11 days): no effect on WT mice | stability in ARDS BAL [7]: remained stable over 8 h | inhibition of Ca^2+ influx after pre-exposure to CF sputum [8]: retained full functionality | BAL eosinophilia [9]: significantly reduced | BAL macrophages [9]: increased BAL macrophages | BAL neutrophilia [9]: significantly reduced BAL neutrophilia | blood macrophages ([10]; 0.5 mg/kg intravenously): significantly increased blood macrophages | blood neutrophilia ([10]; 0.5 mg/kg intravenously): significantly reduced blood neutrophilia | weight loss ([10]; 0.5 mg/kg intravenously 1 h later): significant prevented weight loss
